Laboratory results as given in US20150258197A1, “EUTECTIC ISOMETHEPTENE MUCATE” (TONIX PHARMA HOLDINGS LIMITED, priority 2014, published 2015).

Columns and labels:
Type in all cases: physicochemical
[1] = Excipient compatibility of racemic isometheptene mucate by DSC/XRPD (1:1 mixtures); conditions: 1:1 weight ratio, ground in agate mortar, DSC (XRPD for mannitol)
Method: (§1) Thermal analytical techniques were used to assess the compatibility of a drug product containing racemic isometheptene mucate. The compatibility assessment was carried out between the racemic isometheptene mucate and a number of possible excipients in a 1:1 weight ratio. Based on the thermal events recorded for each component and for the mixtures, the analyses were carried out by investigating the peaks recorded by differential scanning calorimetry (DSC) in mixture between racemic isometheptene mucate and the excipients. Differences in thermal profiles between the single compound and the related mixture obtained after milling the products in an agate mortar were evaluated.
Aliquots of racemic isometheptene mucate and each excipient were weighed in a ratio of 1:1 (unless specified otherwise) and ground in an agate mortar. The homogeneous mixtures then were analyzed.
(§2) The DSC heating curves were obtained with a TA 821 DSC Mettler instrument under the following conditions:
(§3) Heating rate: 10° C./min Ambient: Nitrogen 30 mL/min Sample holder: normal open aluminum pan Temperature range: from 25° C. to 250° C. Instrument calibration: Indium sample purity 99.999%
X-ray powder diffraction (XRPD) tests were performed with the ULTIMA IV instrument (Rigaku), laying the sample on a static sample holder. The X-ray focusing slit has a variable width, interlocked with the q value. The X-ray tube has a copper target, with a current intensity of 40 mA and a voltage of 40 kV. Radiation was generated by the Cockcroft-Walton method, and was constituted by K+1 (1.540562 Å) and Kα2 (1.544398 Å). The analytical conditions were:
(§4) Fixed Time; sampling width 0.02 deg, scanning rate 1.3 s/step, 2 q range 3.35 deg and sample holder; amorphous glass equiangular 9200/2G, 0.2 mm deep. The sample was pressed with a glass plate.

[2] = DSC/XRPD of binary mixtures of isometheptene mucate and mannitol (eutectic formation); conditions: binary mixtures at different ratios
Method: Because mannitol is a common excipient in solid drug formulations, it was examined for compatibility with racemic isometheptene mucate and investigated using DSC and the interactions occurring were assessed. […] To confirm the formation of a eutectic and to characterize its physical properties, several binary mixtures at different ratios of racemic isometheptene mucate and excipient were prepared and analyzed by DSC and by XRPD. The eutectic formation improved the cohesion between the racemic isometheptene mucate and excipient particles and assured better physical linking between the two.
In order to confirm the eutectic formation and to characterize its physical properties, several binary mixtures at different ratios of racemic isometheptene mucate-excipient were prepared and analyzed by DSC and by X-ray powder diffraction (XRPD). […] For each DSC heating curve, the onset temperature and the enthalpy were evaluated both for the eutectic contribute and for the excess of component. The recorded values were plotted and a phase diagram between the two components was obtained with a characteristic profile of phase diagrams of eutectic mixtures. […]
Aliquots of racemic isometheptene mucate API and mannitol were weighed in the ratios described below and ground in an agate mortar, and the homogeneous mixtures subsequently analyzed. […]

[3] = Excipient compatibility of (R)-isometheptene mucate by DSC/XRPD (1:1 mixtures); conditions: 1:1 weight ratio, ground in agate mortar, DSC
Method: as §1, with “mucate (API).” for “mucate.”
Aliquots of (R)-isometheptene mucate and each excipient were weighed in a ratio of 1:1 (unless specified otherwise) and ground in an agate mortar. The homogeneous mixtures then were analyzed.
as §2, §3
(§5) X-ray powder diffraction (XRPD) tests were performed with the ULTIMA IV instrument (Rigaku), laying the sample on a static sample holder. The X-ray focusing slit has a variable width, interlocked with the q value. The X-ray tube has a copper target, with a current intensity of 40 mA and a voltage of 40 kV. Radiation was generated by the Cockcroft-Walton method, and was constituted by Kα1 (1.540562 Å) and Kα2 (1.544398 Å). The analytical conditions were:
as §4

[4] = DSC/XRPD of 75:25 mixtures of (R)-isometheptene salts and β-mannitol; conditions: for Physical interaction with β-mannitol: 75:25 salt:mannitol, dry-granulated or wet-granulated, DSC confirmed by XRPD; for Eutectic formation with mannitol: (R)-isometheptene salts other than mucate, 75:25 with β-mannitol
Method: Thermal analytical techniques were used to analyze mixtures of several (R)-isometheptene salts and β-mannitol in a ratio of 75:25. (R)-isometheptene salts tested were as follows: (R)-isometheptene maleate, (R)-isometheptene malate, and (R)-isometheptene tartrate. Based on the thermal events recorded for each component and for the mixtures, the analyses were carried out by investigating the peaks recorded by differential scanning calorimetry (DSC) in mixture between (R)-isometheptene mucate and the excipients. Differences in thermal profiles between the single compound and the related mixture were evaluated.
Aliquots of (R)-isometheptene salts and each excipient were weighed in a ratio of 1:1 (unless specified otherwise) and ground in an agate mortar with (wet-granulation) or without (dry-granulation) a small amount of water. The homogeneous mixtures then were analyzed.
as §2, §3, §5, §4

Q: Which results are given for OC[C@@H](O)[C@@H](O)[C@H](O)[C@H](O)CO [Mannitol]?
A: Excipient reactions with API (racemic isometheptene mucate), Mixture 1:1 [1]: Physical interaction (complex); Excipient reactions with API (racemic isometheptene mucate), Mixture 1:1 ([1]; listed as mannitol): Physical interaction was observed

Q: Which “Interaction with mannitol (eutectic vs adduct)” value [2] does the source give for CNC(C)CCC=C(C)C.CNC(C)CCC=C(C)C.O=C(O)[C@@H](O)[C@H](O)[C@H](O)[C@@H](O)C(=O)O (racemic) [racemic isometheptene mucate, reference compound] here?
A: only a physical eutectic formation

Q: Which results are given for CCCCCCCCCCCCCCCCCC(=O)O [Stearic acid]?
A: Excipient reactions with API (racemic isometheptene mucate), Mixture 1:1 [1]: YES; Excipient reactions with API (racemic isometheptene mucate), Mixture 1:1 ([1]; listed as stearic acid): physical interaction was observed

Q: Which “Excipient reactions with API (racemic isometheptene mucate), Mixture 1:1” value (“Excipient reactions with API” for short) [1] does the source give for Magnesium stearate here?
A: YES

Q: And the “Excipient reactions with API” value ([1]; listed as magnesium stearate)?
A: small physical interaction was observed

Q: What about the “Excipient reactions with (R)-isometheptene mucate, Mixture 1:1” value [3] of the same molecule?
A: YES

Q: And the “Excipient reactions with (R)-isometheptene mucate, Mixture 1:1” value ([3]; listed as magnesium stearate)?
A: small physical interaction was observed

Q: Which “Physical interaction with β-mannitol” value [4] does the source give for CN[C@H](C)CCC=C(C)C.O=C(O)/C=C\C(=O)O [(R)-isometheptene maleate] here?
A: No physical interaction was observed

Q: What about the “Eutectic formation with mannitol” value [4] of the same molecule?
A: do not form a eutectic composition

Q: Which results are given for CN[C@H](C)CCC=C(C)C.O=C(O)C(O)C(O)C(=O)O [(R)-isometheptene tartrate]?
A: Physical interaction with β-mannitol [4]: No physical interaction was observed; Eutectic formation with mannitol [4]: do not form a eutectic composition

Q: For Isomalt, which “Excipient reactions with API” value [1] is on record?
A: No interaction reported

Q: What about the “Excipient reactions with (R)-isometheptene mucate, Mixture 1:1” value [3] of the same molecule?
A: No interaction reported

Q: For OC[C@@H](O)[C@@H](O)[C@H](O)[C@H](O)CO [Mannitol SD200], which “Excipient reactions with API” value ([1]; listed as mannitol SD200) is on record?
A: Physical interaction was observed

Q: What about the “Excipient reactions with (R)-isometheptene mucate, Mixture 1:1” value [3] of the same molecule?
A: Physical interaction (complex)

Q: And the “Excipient reactions with (R)-isometheptene mucate, Mixture 1:1” value ([3]; listed as mannitol SD200)?
A: Physical interaction was observed

Q: What does the source list for CN[C@H](C)CCC=C(C)C.O=C(O)CC(O)C(=O)O [(R)-isometheptene malate]?
A: Physical interaction with β-mannitol [4]: No physical interaction was observed; Eutectic formation with mannitol [4]: do not form a eutectic composition
